The record followed here is article PMC4836378 (Journal of medicinal chemistry, 2016).

As usually defined, the Ki is a dissociation constant, usually derived from enzyme kinetics or from competition with a known ligand. The low end stands for tighter binding, the high end for weaker binding. The inhibition is the change of the read-out against control, counted positive when it falls. What is called Km is the concentration of substrate that gives half-maximal velocity.

Read-outs that look alike come from different tables or passages of the source.

Data set [1] concerns the target T1, CYP26B1 (Homo sapiens, UniProt Q9NR63).
T1 sequence (Q9NR63 1-512): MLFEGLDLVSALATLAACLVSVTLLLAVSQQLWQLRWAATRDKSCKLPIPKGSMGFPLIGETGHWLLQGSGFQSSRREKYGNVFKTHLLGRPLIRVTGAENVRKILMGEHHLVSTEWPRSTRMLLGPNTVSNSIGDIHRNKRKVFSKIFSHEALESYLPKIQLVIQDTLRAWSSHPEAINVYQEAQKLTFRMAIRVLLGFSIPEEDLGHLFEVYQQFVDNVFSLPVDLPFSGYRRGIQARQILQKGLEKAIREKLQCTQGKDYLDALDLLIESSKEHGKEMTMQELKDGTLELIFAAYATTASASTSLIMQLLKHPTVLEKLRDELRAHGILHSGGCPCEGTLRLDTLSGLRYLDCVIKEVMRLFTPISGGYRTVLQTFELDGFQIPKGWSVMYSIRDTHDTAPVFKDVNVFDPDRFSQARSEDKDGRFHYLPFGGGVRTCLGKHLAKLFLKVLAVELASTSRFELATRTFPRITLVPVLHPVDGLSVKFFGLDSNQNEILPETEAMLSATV
As to the kind of experiment: CYP26B1 inhibition assay.

The target of data set [2] is T2, CYP26A1 (Homo sapiens, UniProt O43174).
T2 sequence (O43174 1-497): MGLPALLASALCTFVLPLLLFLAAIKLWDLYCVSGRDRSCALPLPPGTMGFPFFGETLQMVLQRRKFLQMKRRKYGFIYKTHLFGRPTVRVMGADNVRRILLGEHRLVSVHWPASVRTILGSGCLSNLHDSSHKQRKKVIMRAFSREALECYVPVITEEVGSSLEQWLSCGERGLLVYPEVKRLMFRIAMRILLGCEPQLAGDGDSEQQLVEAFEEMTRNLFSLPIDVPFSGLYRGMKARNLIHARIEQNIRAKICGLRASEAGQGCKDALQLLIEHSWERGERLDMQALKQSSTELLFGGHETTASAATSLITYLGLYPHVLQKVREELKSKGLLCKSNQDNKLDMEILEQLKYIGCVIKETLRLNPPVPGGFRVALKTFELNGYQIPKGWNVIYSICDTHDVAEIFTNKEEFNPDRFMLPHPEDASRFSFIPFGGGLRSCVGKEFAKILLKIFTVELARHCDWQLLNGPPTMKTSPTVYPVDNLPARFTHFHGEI
As to the kind of experiment: CYP26A1 inhibition assay. The following applies: for Selectivity towards CYP26A1 compared to CYP26B1 (ratio of IC50): CYP26B1 IC50 versus CYP26A1 IC50.

The target of data set [3] is CYP3A4 (Homo sapiens, UniProt P08684). The experiment in a line: CYP3A4 inhibition in human liver microsomes. The data set is classed as in vitro ADME. To be noted: midazolam; for Percent inhibition of CYP3A4: 10 μM inhibitor, 10 µM. (In general: Liver microsomes are vesicles of endoplasmic reticulum, rich in cytochrome P450 enzymes.)
Sequence of CYP3A4 (P08684 whole entry): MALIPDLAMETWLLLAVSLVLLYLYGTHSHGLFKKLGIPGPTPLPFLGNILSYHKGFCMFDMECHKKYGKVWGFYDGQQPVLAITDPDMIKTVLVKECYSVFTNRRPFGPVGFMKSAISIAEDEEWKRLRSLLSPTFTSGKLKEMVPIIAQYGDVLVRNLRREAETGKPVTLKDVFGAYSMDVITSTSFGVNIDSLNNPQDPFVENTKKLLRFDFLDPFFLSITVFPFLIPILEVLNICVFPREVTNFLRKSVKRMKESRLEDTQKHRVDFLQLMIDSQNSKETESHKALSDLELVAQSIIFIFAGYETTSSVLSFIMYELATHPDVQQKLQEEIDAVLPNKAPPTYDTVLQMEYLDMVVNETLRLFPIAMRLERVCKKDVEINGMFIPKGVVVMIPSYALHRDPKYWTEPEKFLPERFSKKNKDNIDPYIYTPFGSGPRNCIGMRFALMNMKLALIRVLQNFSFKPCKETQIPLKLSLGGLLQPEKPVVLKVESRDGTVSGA
The target of data set [4] is T3, human RARγ (Homo sapiens, UniProt P13631).
T3 sequence (P13631 1-454): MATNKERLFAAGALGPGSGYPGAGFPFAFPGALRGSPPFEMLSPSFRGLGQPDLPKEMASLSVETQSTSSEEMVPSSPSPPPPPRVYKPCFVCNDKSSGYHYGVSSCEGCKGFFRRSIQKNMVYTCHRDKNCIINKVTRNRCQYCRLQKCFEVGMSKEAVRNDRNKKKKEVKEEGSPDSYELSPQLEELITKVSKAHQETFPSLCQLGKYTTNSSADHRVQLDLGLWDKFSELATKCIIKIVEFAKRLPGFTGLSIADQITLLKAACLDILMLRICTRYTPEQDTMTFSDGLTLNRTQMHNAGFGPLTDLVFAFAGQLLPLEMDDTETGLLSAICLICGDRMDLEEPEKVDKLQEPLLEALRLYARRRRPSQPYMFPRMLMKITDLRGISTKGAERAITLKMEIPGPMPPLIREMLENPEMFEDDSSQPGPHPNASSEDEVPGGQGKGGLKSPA
The experiment in a line: Luciferase-based RARγ reporter assay. The data set is classed as cell-based. To be noted: 1 μM compound, data not shown.

Data set [5] addresses CYP2D6 (Homo sapiens, UniProt P10635). The experiment in a line: CYP2D6 inhibition in human liver microsomes. In kind it is in vitro ADME.
Data set [6] relates to RARs in HepG2 cells. As to the kind of experiment: Induction of RARβ and CYP26A1 mRNA in HepG2 cells. In kind it is cell-based, human. The following applies: for RAR antagonistic activity: 100 nM atRA + 1 μM compound; for Magnitude of induction of RARβ and CYP26A1 mRNA compared to atRA treatment alone: 100 nM atRA in combination with 1 μM compound; for Activation of RARs (induction of CYP26A1 and RARβ mRNA): 1 μM compound alone, 24 hours, versus vehicle and atRA.

The target of data set [7] is T4, human RARα (Homo sapiens, UniProt P10276).
T4 sequence (P10276 1-462): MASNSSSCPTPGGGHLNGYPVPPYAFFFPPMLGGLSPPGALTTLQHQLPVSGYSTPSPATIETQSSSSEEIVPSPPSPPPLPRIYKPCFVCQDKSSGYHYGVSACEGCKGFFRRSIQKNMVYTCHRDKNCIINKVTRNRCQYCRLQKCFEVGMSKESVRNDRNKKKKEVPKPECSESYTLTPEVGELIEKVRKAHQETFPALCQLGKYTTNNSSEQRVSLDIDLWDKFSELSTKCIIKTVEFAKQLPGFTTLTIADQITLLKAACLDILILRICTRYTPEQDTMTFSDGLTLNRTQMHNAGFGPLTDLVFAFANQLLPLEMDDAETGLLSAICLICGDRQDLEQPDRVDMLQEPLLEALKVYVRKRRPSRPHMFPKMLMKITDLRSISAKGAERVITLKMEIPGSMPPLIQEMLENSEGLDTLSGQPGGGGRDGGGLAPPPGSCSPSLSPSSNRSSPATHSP
As to the kind of experiment: Luciferase-based RARα reporter assay. The following applies: 1 μM compound, data not shown. The data set is classed as cell-based. Background: A reporter such as luciferase makes a cellular process visible.

Data set [8] deals with CYP2C19 (Homo sapiens, UniProt P33261). As to the kind of experiment: CYP2C19 inhibition in human liver microsomes. To be noted: 10 μM inhibitor, (S)-mephenytoin. The data set is classed as in vitro ADME.
Sequence of CYP2C19 (P33261 whole entry): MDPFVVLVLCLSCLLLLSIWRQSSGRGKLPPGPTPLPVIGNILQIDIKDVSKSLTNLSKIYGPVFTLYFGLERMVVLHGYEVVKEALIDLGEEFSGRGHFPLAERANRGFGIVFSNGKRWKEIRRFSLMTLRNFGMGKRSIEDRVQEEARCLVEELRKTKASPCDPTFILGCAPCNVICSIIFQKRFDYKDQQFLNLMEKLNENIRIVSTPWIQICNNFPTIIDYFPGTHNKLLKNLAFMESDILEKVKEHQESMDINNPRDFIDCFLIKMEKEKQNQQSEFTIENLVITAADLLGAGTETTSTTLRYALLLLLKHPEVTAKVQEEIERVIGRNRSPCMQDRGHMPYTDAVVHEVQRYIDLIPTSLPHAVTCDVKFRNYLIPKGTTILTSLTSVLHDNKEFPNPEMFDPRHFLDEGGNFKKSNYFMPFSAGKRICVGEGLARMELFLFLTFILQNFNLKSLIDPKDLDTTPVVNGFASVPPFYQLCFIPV
The target of data set [9] is T5, CYP2B6 (Homo sapiens, UniProt P20813).
T5 sequence (P20813 1-491): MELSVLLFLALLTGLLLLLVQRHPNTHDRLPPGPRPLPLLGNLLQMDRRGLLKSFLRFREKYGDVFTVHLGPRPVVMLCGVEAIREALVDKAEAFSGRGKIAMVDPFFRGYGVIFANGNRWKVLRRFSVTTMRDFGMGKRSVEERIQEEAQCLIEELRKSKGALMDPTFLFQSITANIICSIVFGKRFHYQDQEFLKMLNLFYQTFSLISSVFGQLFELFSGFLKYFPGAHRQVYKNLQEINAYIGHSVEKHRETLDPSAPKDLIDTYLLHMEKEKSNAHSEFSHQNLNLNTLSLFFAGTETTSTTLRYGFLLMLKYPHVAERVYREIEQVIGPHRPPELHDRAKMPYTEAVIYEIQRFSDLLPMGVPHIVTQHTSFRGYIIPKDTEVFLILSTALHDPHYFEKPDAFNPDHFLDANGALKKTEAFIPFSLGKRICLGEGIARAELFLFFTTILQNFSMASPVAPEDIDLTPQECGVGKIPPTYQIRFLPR
The experiment in a line: CYP2B6 inhibition in human liver microsomes. The data set is classed as in vitro ADME. To be noted: 10 μM inhibitor, bupropion.

The subject of data set [10] is atRA metabolism in HepG2 cells. To be noted: HepG2, 24 hour treatment.
Substrate in data set [11]: CC1=C(/C=C/C(C)=C\C=C\C(C)=C\C(=O)O)C(C)(C)CCC1
As to the kind of experiment: cells, lysate or membranes named. To be noted: other: recombinant CYP26B1, 50-1000 nM 9-cis-RA; pH 7.4; 37.0 °C.

Sequence of CYP2D6 (P10635 whole entry): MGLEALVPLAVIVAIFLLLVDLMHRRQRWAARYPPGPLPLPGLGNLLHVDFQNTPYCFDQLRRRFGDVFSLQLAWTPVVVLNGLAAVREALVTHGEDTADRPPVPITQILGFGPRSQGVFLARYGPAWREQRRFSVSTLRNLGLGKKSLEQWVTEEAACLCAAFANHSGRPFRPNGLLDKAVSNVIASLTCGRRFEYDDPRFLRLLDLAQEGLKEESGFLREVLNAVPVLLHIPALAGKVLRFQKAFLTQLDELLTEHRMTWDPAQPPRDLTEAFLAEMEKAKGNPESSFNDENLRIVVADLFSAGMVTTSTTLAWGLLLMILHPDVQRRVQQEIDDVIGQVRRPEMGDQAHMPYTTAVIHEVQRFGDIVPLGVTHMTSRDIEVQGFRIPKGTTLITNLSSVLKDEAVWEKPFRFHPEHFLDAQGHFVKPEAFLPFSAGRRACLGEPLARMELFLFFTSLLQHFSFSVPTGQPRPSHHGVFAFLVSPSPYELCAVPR

As for `CCC(CC)C(c1ccc(Nc2nc3ccccc3s2)cc1)n1cncn1` (stereo not shown) [Compound 3, talarozole], the Ki in [1] worked out at 0.46 nM; in data set [2], 5.1 nM.
With `CC1(C)CCC(C)(C)c2cc(C3(c4ccc5cc(C(=O)O)ccc5c4)OCCO3)ccc21` [Compound 13b, 6-(2-(5,5,8,8-Tetramethyl-5,6,7,8-tetrahydronaphthalen-2-yl)-1,3-dioxolan-2-yl)-2-naphthoic acid], the “Selectivity towards CYP26A1 compared to CYP26B1 (ratio of IC50)” value in [2] is 10–20 fold.
As for `CC1(C)CCC(C)(C)c2cc(C3(c4ccc5cc(C(=O)O)ccc5c4)SCCS3)ccc21` [Compound 15b, 6-(2-(5,5,8,8-Tetramethyl-5,6,7,8-tetrahydronaphthalen-2-yl)-1,3-dithiolan-2-yl)-2-naphthoic acid], in [2], the “Selectivity towards CYP26A1 compared to CYP26B1 (ratio of IC50)” value is reported as 10–20 fold.
With `CC1(C)CCC(C)(C)c2cc(C3(c4ccc(/C=C/C(=O)O)cc4)OCCO3)ccc21` [Compound 22, (E)-3-(4-(2-(5,5,8,8-Tetramethyl-5,6,7,8-tetrahydronaphthalen-2-yl)-1,3-dioxolan-2-yl)phenyl)-acrylic acid], in data set [3], the “Percent inhibition of CYP3A4” value is “free of any CYP3A4 inhibition”. Further, the RARγ activation entry in [4] is “No measurable RARα and RARγ activation was detected”. In data set [5] (human, probe dextromethorphan), the inhibition at 10 µM is 50%. Besides, in data set [6], the RAR antagonistic activity entry is “do not exhibit an RAR antagonistic activity”; the “Magnitude of induction of RARβ and CYP26A1 mRNA compared to atRA treatment alone” value is on record as “significantly increased”; the “Activation of RARs (induction of CYP26A1 and RARβ mRNA)” value is “none of the three compounds resulted in activation”. Besides, the RARα activation result in data set [7] is “No measurable RARα and RARγ activation was detected”.
Take `CC1(C)CCC(C)(C)c2cc(C3(c4ccc(CCC(=O)O)cc4)OCCO3)ccc21` [Compound 24, 3-{4-[2-(5,5,8,8-Tetramethyl-5,6,7,8-tetrahydronaphthalen-2-yl)-1,3-dioxolan-2-yl]phenyl}4 propanoic acid]: in [3], the “Percent inhibition of CYP3A4” value was “free of any CYP3A4 inhibition” and the “IC50 for CYP3A4 inhibition” value is “no concentration dependent inhibition”. The “Percent inhibition of CYP2C19” value in data set [8] is on record as “free of any significant inhibition”. Also, the RARγ activation result in data set [4] is “No measurable RARα and RARγ activation was detected”. Moreover, the “Percent inhibition of CYP2B6” value in data set [9] is “free of any significant inhibition”. Moreover, the “Percent inhibition of CYP2D6” value in [5] (10 μM inhibitor, dextromethorphan, 10 µM) is listed as “free of any significant inhibition”. In addition, in data set [6], the RAR antagonistic activity entry was “do not exhibit an RAR antagonistic activity”; the “Magnitude of induction of RARβ and CYP26A1 mRNA compared to atRA treatment alone” value is “significantly increased”; the “Activation of RARs (induction of CYP26A1 and RARβ mRNA)” value is “none of the three compounds resulted in activation”. Also, the RARα activation result in data set [7] was “No measurable RARα and RARγ activation was detected”.
As for `CC1=C(/C=C/C(C)=C/C=C/C(C)=C/C(=O)O)C(C)(C)CCC1` [atRA, all-trans-retinoic acid], the “atRA in cell media” value in data set [10] (100nM atRA alone) is reported as 13.2 ± 0.14 nM; in data set [10] (1μM atRA alone), 214 ± 13.6 nM.

B1: CYP26B1 (Homo sapiens) (protein)
chain: MLFEGLDLVSALATLAACLVSVTLLLAVSQQLWQLRWAATRDKSCKLPIPKGSMGFPLIGETGHWLLQGSGFQSSRREKYGNVFKTHLLGRPLIRVTGAENVRKILMGEHHLVSTEWPRSTRMLLGPNTVSNSIGDIHRNKRKVFSKIFSHEALESYLPKIQLVIQDTLRAWSSHPEAINVYQEAQKLTFRMAIRVLLGFSIPEEDLGHLFEVYQQFVDNVFSLPVDLPFSGYRRGIQARQILQKGLEKAIREKLQCTQGKDYLDALDLLIESSKEHGKEMTMQELKDGTLELIFAAYATTASASTSLIMQLLKHPTVLEKLRDELRAHGILHSGGCPCEGTLRLDTLSGLRYLDCVIKEVMRLFTPISGGYRTVLQTFELDGFQIPKGWSVMYSIRDTHDTAPVFKDVNVFDPDRFSQARSEDKDGRFHYLPFGGGVRTCLGKHLAKLFLKVLAVELASTSRFELATRTFPRITLVPVLHPVDGLSVKFFGLDSNQNEILPETEAMLSATV
As to B1, in data set [11], the Km was found to be 0.555 µM and the kcat is given as 3.6 pmol/min/pmol P450.
